Measured values from paper PMC6571863, “Bioassay-Guided Isolation of Triterpenoids as α-Glucosidase Inhibitors from Cirsium setosum” (Molecules, 2019).

System: α-Glucosidase enzyme (from Saccharomyces cerevisiae)
Test: α-glucosidase inhibitory assay (p-NPG substrate, spectrophotometric)
Assay type: biochemical
Details: mean SD (n = 3); for Inhibition (%): tested concentration of all samples 100 μM; for IC50: α-glucosidase, p-NPG substrate
Description: A total of 200 μL of reaction mixture, containing 70 μL of 0.1 M phosphate buffer (pH 6.8), 10 μL of 1.0 mg/mL reduced glutathione solution, and 10 μL of the sample solution (test concentration at 0.1 mg/mL), was added to each well of a 96-well plate, followed by the addition of 20 μL of 0.5 U/mL α-glucosidase solution. The plate was incubated at 37 °C for 15 min, and then 20 μL of p-Nitrophenyl α-D-glucopyranoside substrate was added to the mixture to start the reaction. The reaction mixture was incubated at 37 °C for 30 min, and then 70 μL of 0.1 M Na2CO3 solution was added to the mixture to terminate the reaction. All samples were analyzed in triplicate with three different concentrations near the IC50 values. The absorbance (A) was immediately recorded at 400 nm, using a spectrophotometrical method to estimate the enzymatic activity. The inhibition percentage was calculated by the following equation: Inhibitory rate (%) = [1 − (Atest − Ablank)/(control Atest − control Ablank)] × 100%.
Here, Atest represents the absorbance value of the experimental sample, Ablank represents the absorbance value of sample blank, control Atest represents the absorbance value of the control, and control Ablank represents the absorbance value of the blank.

| Compound | Inhibition (%) | IC50 [µM] |
| --- | --- | --- |
| CC1=CC(=O)[C@]2(C)CC[C@]3(C)[C@H](CCC4[C@@]5(C)CCC(=O)C(C)(C)C5CC[C@]43C)C2[C@@H]1C (some centres unmarked) [Compound 5, 20-taraxastene-3,22-dione] | 60.78 ± 5.81 | 68.9 ± 1.82 |
| CC(=O)O[C@H]1CC[C@@]2(C)C(CC[C@]3(C)C2CC[C@@H]2C4[C@H](C)C(C)=CC(=O)[C@]4(C)CC[C@]23C)C1(C)C (stereo partly drawn) [Compound 6, 3β-acetoxy-20-taraxasten-22-one] | 63.06 ± 7.44 | 54.2 ± 2.25 |
| CC1=CC(=O)C2(C)CCC3(C)C(CCC4C5(C)CCC(O)C(C)(C)C5CCC43C)C2C1C (stereo not drawn) [Compound 7, 3β-hydroxy-20-taraxasten-22-one] | 95.59 ± 2.34 | 22.7 ± 0.25 |
| C[C@@H]1C=C[C@H](O)[C@]2(C)CC[C@]3(C)[C@H](CCC4[C@@]5(C)CC[C@H](O)C(C)(C)C5CC[C@]43C)C12 (stereo partly drawn) [Compound 3, 30-nor-3β,22α-dihydroxy-20-taraxastene] | 70.34 ± 2.73 | 44.6 ± 1.39 |
| COC1C=C(C)C(C)C2C3CCC4C5(C)CCC(O)C(C)(C)C5CCC4(C)C3(C)CCC12C (stereo not drawn) [Compound 2, 3β-hydroxy-22α-methoxy-20-taraxastene] | 93.29 ± 0.74 | 27 ± 0.89 |
| C[C@H]1O[C@H](O[C@H]2[C@H](O)[C@@H](O)[C@@H](O[C@H]3[C@H](O)[C@@H](O)C(O)O[C@@H]3CO)O[C@@H]2CO)[C@H](O)[C@@H](O)[C@@H]1N[C@H]1C=C(CO)[C@@H](O)[C@H](O)[C@H]1O (some centres unmarked) [Acarbose, acarbose, reference compound] | 78.35 ± 3.41 | – |

The next lines start with the values.

| Inhibition (%) | IC50 [µM] | Compound |
| --- | --- | --- |
| 99.46 ± 1.04 | 18.3 ± 1.27 | CC1C(COO)=CCC2(C)CCC3(C)C(CCC4C5(C)CCC(O)C(C)(C)C5CCC43C)C12 (stereo not drawn) [Compound 1, 3β-hydroxy-30-hydroperoxy-20-taraxastene] |
| 94.95 ± 1.67 | 17.5 ± 1.42 | CC1=CC(O)C2(C)CCC3(C)C(CCC4C5(C)CCC(O)C(C)(C)C5CCC43C)C2C1C (stereo not drawn) [Compound 4, 3β,22α-dihydroxy-20-taraxastene] |
| 59.19 ± 3.81 | 80.1 ± 2.13 | C[C@@H]1C=CC[C@]2(C)CC[C@]3(C)[C@H](CCC4[C@@]5(C)CC[C@H](O)C(C)(C)C5CC[C@]43C)C12 (stereo partly drawn) [Compound 8, 30-nor-3β-hydroxy-20-taraxastene] |
